Consider nine compounds from patent US20250163032A1, “NOVEL MOLECULES AS INHIBITORS OF DNA DAMAGE REPAIR PATHWAY” (VRise Therapeutics, Inc., priority 2023, published 2025).

Data set [1] is described as follows: Metabolic stability, mouse liver microsomes. Format: in vitro ADME. The following applies: pH 7.4, 1 μM test item, 1 mM NADPH, 60 minutes. The procedure: (§1) Test-8: Metabolic Stability
(§2) Metabolic stability studies were conducted using mouse, rat, and human liver microsomes. The protocol for the studies with mouse and human liver microsomes (Gibco-Thermo) is provided below.
(§3) In brief, 0.25 mg protein was preincubated in phosphate buffer (pH˜7.4) for 5 min at 37° C. and then added with 1 μM test item followed by addition of 1 mM NADPH (cof actor) and incubated further over a period 60 minutes in duplicate. The reaction mixture was terminated with acetonitrile containing an internal standard and centrifuged further to analyse the test item remaining in the supernatant by LC-MS/MS at different intervals. The percent parent compound remaining was calculated in comparison with similar samples terminated at 0 minutes.

In data set [2] the test system is MD-MBA-436. Kind of data set: Cell viability assay (CTG assay). Format: cell-based, human. The settings on record: 7th day. The method, then: Test 5: Cell Viability Assay (CTG Assay):
Growth inhibition assays was carried out using […] supplemented media. Cells were seeded at a desired concentration of 1000-6,000 cells/well in a well plate with desired number of wells. Test compounds at a desired concentration range were added after 24 hours. Growth was assessed using the Cell Titer-Glo (CTG, Cell Signaling) for measuring reduction at 7th day after the addition of test compound chemiluminescence values were read by a plate reader. Data was be analysed and percent inhibition and/or IC50 for each test compound is calculated accordingly.

Data set [3] in a line: Metabolic stability, human liver microsomes. Format: in vitro ADME. The following applies: pH 7.4, 1 μM test item, 1 mM NADPH, 60 minutes. The method, then: as §1, §2, §3
(Liver microsomes are vesicles of endoplasmic reticulum, rich in cytochrome P450 enzymes.)

The target of data set [4] is USP1/UAF1 (Homo sapiens, UniProt O94782). Briefly: USP1/UAF 1 assay (ubiquitin-rhodamine110 fluorometric deubiquitinase assay). Format: biochemical. The settings on record: for IC50: 1 nM USP1/UAF1, 150 nM Ub-Rho, read-out: Biochemical assay IC50. The method, then: Test-1: USP1/UAF 1 Assay:
Deubiquitinase activity of USP1/UAF1 was monitored in a fluorometric assay using ubiquitin-rhodamine110 as substrate. Briefly, enzymatic reactions were conducted in an assay buffer composed of 50 mM HEPES, pH 7.8, 0.5 mM EDTA, 100 mM NaCl, 1 mM TCEP, 0.1 mg/mL BSA, and 0.01% Tween-20 that contained 1 nM USP1/UAF1. Compounds were tested at desired concentrations. The plates were incubated for 15 min to attain equilibrium, and then the enzymatic reaction was initiated by dispensing 150 nM Ub-Rho solution. Fluorescence measurement was performed in a high throughput CCD imager, where kinetic measurements of rhodamine fluorescence were acquired using a 480 nm excitation/540 nm emission filter set. The change in fluorescence intensity over a 5-minute reaction period (typically associated with less than 10% substrate conversion) was normalized against no-inhibitor and no-enzyme controls and the resulting percent inhibition data were fitted to a sigmoidal dose response using a four-parameter Hill equation. Data was be analysed and percent inhibition and/or IC50 for each test compound is calculated accordingly.

USP1/UAF1, sequence (O94782 whole entry): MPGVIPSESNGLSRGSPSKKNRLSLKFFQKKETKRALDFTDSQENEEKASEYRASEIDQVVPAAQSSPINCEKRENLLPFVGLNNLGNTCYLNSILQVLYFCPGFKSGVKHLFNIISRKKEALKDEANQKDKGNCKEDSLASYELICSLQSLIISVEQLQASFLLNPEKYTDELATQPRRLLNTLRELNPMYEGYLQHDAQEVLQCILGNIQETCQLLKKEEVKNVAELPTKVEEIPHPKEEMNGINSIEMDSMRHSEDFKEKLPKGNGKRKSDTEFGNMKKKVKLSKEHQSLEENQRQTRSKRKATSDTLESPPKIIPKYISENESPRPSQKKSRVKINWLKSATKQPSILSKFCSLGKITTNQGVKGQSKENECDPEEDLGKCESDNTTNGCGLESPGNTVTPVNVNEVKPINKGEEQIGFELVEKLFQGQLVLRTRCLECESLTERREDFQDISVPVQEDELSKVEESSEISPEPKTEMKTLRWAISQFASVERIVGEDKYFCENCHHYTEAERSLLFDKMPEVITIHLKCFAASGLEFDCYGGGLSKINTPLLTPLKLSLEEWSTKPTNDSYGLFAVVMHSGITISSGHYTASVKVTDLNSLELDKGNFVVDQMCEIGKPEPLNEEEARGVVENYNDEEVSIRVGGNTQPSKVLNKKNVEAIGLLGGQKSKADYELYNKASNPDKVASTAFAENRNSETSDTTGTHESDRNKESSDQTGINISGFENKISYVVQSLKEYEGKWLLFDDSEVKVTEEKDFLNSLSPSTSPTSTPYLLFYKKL
USP1/UAF1, sequence (Q8TAF3 whole entry partner): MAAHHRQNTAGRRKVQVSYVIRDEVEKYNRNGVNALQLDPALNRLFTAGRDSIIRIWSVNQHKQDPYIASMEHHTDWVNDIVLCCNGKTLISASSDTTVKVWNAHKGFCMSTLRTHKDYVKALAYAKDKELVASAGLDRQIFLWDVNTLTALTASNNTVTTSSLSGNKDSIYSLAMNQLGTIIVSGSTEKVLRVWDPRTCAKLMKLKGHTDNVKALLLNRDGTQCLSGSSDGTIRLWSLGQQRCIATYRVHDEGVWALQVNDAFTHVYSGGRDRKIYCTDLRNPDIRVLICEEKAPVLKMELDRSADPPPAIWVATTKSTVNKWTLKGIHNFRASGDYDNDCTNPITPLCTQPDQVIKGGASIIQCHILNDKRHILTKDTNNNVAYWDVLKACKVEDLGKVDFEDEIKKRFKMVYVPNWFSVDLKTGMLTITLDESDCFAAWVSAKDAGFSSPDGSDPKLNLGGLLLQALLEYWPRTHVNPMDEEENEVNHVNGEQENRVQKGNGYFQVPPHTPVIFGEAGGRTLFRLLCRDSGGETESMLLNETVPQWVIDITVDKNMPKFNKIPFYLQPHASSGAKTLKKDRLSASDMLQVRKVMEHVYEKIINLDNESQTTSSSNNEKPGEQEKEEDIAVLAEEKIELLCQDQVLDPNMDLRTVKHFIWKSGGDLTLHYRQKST

As to `COc1ncnc(C2CC2)c1-c1nc2c(c(OCc3ccc(-c4nc(C(F)(F)F)cn4C)cc3)n1)CCC2` [Example 24, 2-(4-cyclopropyl-6-methoxypyrimidin-5-yl)-4-((4-(1-methyl-4-(trifluoromethyl)-1H-imidazol-2-yl)benzyl)oxy)-6,7-dihydro-5H-cyclopenta[d]pyrimidine], the half-life at 1 μM in data set [1] was 22.6 min; in data set [3] it was 227 min. This compound returned an inhibition at 10 µM in data set [2] (Homo sapiens, @10 μM) of 75 to 100%.

As to `CC(C)c1ccccc1-c1nc2c(c(NCc3ccc(-c4nc(C(F)(F)F)cn4C)cc3)n1)CCC2` [Example 3, 2-(2-isopropylphenyl)-N-(4-(1-methyl-4-(trifluoromethyl)-1H-imidazol-2-yl)benzyl)-6,7-dihydro-5H-cyclopenta[d]pyrimidin-4-amine], the half-life at 1 μM in data set [1] was found to be 14.4 min; in data set [3], 14 min. The IC50 in data set [2] (Homo sapiens) and in data set [4] was < 50 nM in each case.

`COc1ncnc(C2CC2)c1-c1nc2c(c(NCc3ccc(-c4nc(C(F)(F)F)cn4C)cc3)c1C#N)CCC2` [Example 21, 2-(4-cyclopropyl-6-methoxypyrimidin-5-yl)-4-((4-(1-methyl-4-(trifluoromethyl)-1H-imidazol-2-yl)benzyl)amino)-6,7-dihydro-5H-cyclopenta[b]pyridine-3-carbonitriles]: in data set [2] (Homo sapiens, @10 μM), the inhibition at 10 µM is 50 to 75%. In addition, the IC50 in data set [4] is 100 to 1000 nM. Also, the half-life at 1 μM in data set [3] was found to be 52.7 min.

On to `Cc1cnc(-c2ccccc2C(C)C)nc1NCc1ccc(-n2ccnn2)cc1` [ML323, reference compound], for which the half-life at 1 μM in data set [1] stood at 7.58 min; in data set [3] it was 30.3 min.

Regarding `CC(C)c1ccccc1-c1nc2c(c(N(Cc3ccc(-c4nc(C(F)(F)F)cn4C(C)C)cc3)C(=O)N(C)C)n1)CCC2` [Example 14, 1-(4-(1-isopropyl-4-(trifluoromethyl)-1H-imidazol-2-yl)benzyl)-1-(2-(2-isopropylphenyl)-6,7-dihydro-5H-cyclopenta[d]pyrimidin-4-yl)-3,3-dimethylurea], the inhibition at 1 µM in data set [4] (read-out: Biochemical assay % inhibition @1 μM) is 25 to 50%. Besides, in data set [3], the half-life at 1 μM was 3.21 min.

In data set [1], `CC(C)n1cc(C(F)(F)F)nc1-c1ccc(CNc2nc(-c3c(OC(F)F)ncnc3C3CC3)nc3c2CCC3)cc1` [Example 11, 2-(4-cyclopropyl-6-(difluoromethoxy)pyrimidin-5-yl)-N-(4-(1-isopropyl-4-(trifluoromethyl)-1H-imidazol-2-yl)benzyl)-6,7-dihydro-5H-cyclopenta[d]pyrimidin-4-amine] had a half-life at 1 μM of 45.5 min. The “MD-MBA-436 % inhibition@10 μM” value in data set [2] (@10 μM) is recorded as “A#”. The IC50 in data set [4] was < 50 nM.

As for `CC(C)c1ccccc1-c1nc2c(c(NCc3ccc(-c4nc(C(F)(F)F)cn4C(C)C)cc3)n1)CCC2` [Example 9, N-(4-(1-isopropyl-4-(trifluoromethyl)-1H-imidazol-2-yl)benzyl)-2-(2-isopropylphenyl)-6,7-dihydro-5H-cyclopenta[d]pyrimidin-4-amine], the IC50 in data set [4] is < 50 nM. In data set [3], this compound showed a half-life at 1 μM of 10.5 min.

On to `COc1ncnc(C2CC2)c1-c1nc(OCc2ccc(-c3nc(C(F)(F)F)cn3C)cc2)c2[nH]cnc2n1` [Example 26, 2-(4-cyclopropyl-6-methoxypyrimidin-5-yl)-6-((4-(1-methyl-4-(trifluoromethyl)-1H-imidazol-2-yl)benzyl)oxy)-7H-purine], for which the half-life at 1 μM amounted to 284 min in data set [1] and 683 min in data set [3]. In data set [4] (read-out: Biochemical assay % inhibition @10 μM), the inhibition at 10 µM is > 75%.

Take `COc1ncnc(C2CC2)c1-c1nc(NCc2ccc(-c3nc(C(F)(F)F)cn3C)cc2)c2c(c1C#N)CCC2` [Example 2, 3-(4-cyclopropyl-6-methoxypyrimidin-5-yl)-1-((4-(1-methyl-4-(trifluoromethyl)-1H-imidazol-2-yl)benzyl)amino)-6,7-dihydro-5H-cyclopenta[c]pyridine-4-carbonitrile]: the inhibition at 10 µM in data set [2] (Homo sapiens, @10 μM) fell in the range of 50 to 75%. In data set [4], the IC50 lay within 100 to 1000 nM. The compound further returned a half-life at 1 μM in data set [3] of 20.4 min.

In general, half-life refers to how long it takes for the measured level to halve. A low value points to fast loss. For orientation: inhibition means how much of the control response was suppressed. Broadly, the IC50 is the point on the concentration scale where inhibition reaches its midpoint.
